Source: US20210346357A1 (priority 2020, published 2021)
“And” between values parts separate entries of the source, which are not always exact repeats. Equal entries are not always repeated.

Columns and labels:
[1] = Human plasma protein binding; assay type: in vitro ADME
[2] = system: Symptomatic Acute Lung Injury Associated with COVID-19; test: Phase 2 study Part 1, inhaled compound 1 in hospitalized COVID-19 patients; conditions: COVID-19 patients; for Modified Borg Dyspnea Score, Baseline, Mean: baseline value
[3] = 1 mg, matched D1 and D7 samples

Compound: CCc1cc(O)ccc1-c1ccc2c(-c3nc4c([nH]3)CN(C(C)C)[C@H](C(=O)N3CC(N(C)C)C3)C4)n[nH]c2c1 [Compound 1, (S)-(3-(dimethylamino)azetidin-1-yl)(2-(6-(2-ethyl-4-hydroxyphenyl)-1H-indazol-3-yl)-5-isopropyl-4,5,6,7-tetrahydro-3H-imidazo[4,5-c]pyridin-6-yl)methanone]
- fraction unbound [1]: 0.019
- human plasma protein binding [1]: 98.1%
- exposures provided by the loading dose on Day 1 [2]: consistent with pseudo steady-state
- Clinical Status at Day 28: 1-Not hospitalized, no limitations on activities, number ([2]; 1 mg): 5
- Clinical Status at Day 28: 1-Not hospitalized, no limitations on activities, percent ([2]; 1 mg): 83.3%
- Clinical Status at Day 28: 2-Not hospitalized, but with limitations on activities and/or requiring home oxygen, number ([2]; 1 mg): 0
- Clinical Status at Day 28: 3-Hospitalized, not requiring supplemental oxygen, and no longer requiring ongoing medical care, number ([2]; 1 mg): 0
- Clinical Status at Day 28: 4-Hospitalized, not requiring supplemental oxygen, but requiring ongoing medical care, number ([2]; 1 mg): 0
- Clinical Status at Day 28: 5-Hospitalized, requiring supplemental oxygen, number ([2]; 1 mg): 0
- Clinical Status at Day 28: 6-Hospitalized, on non-invasive ventilation or high-flow oxygen devices, number ([2]; 1 mg): 0
- Clinical Status at Day 28: 7-Hospitalized, on invasive mechanical ventilation or extracorporeal membrane oxygenation, number ([2]; 1 mg): 0
- Clinical Status at Day 28: 8-Death, number ([2]; 1 mg): 1
- Clinical Status at Day 28: 8-Death, percent ([2]; 1 mg): 16.7%
- Still in Hospital at Day 28, number ([2]; 1 mg): 0
- Time to Hospital Discharge (Days) Median ([2]; 1 mg): 18.5 days
- Modified Borg Dyspnea Score, Baseline, Mean ([2]; 1 mg group): 6.17
- Modified Borg Dyspnea Score Change from Baseline, Mean ([2]; 1 mg, Day 2): 0.33
- Modified Borg Dyspnea Score Change from Baseline, Mean ([2]; 1 mg, Day 3): −0.33
- Modified Borg Dyspnea Score Change from Baseline, Mean ([2]; 1 mg, Day 4): −0.83
- Modified Borg Dyspnea Score Change from Baseline, Mean ([2]; 1 mg, Day 5): −1.17
- Modified Borg Dyspnea Score Change from Baseline, Mean ([2]; 1 mg, Day 6): −1.33
- Hospital Discharge, number ([2]; 1 mg, Day 7): 0
- Modified Borg Dyspnea Score Change from Baseline, Mean ([2]; 1 mg, Day 7): −1.50
- Hospital Discharge, number ([2]; 1 mg, Day 14): 2
- Hospital Discharge, percent ([2]; 1 mg, Day 14): 33.3%
- Hospital Discharge, number ([2]; 1 mg, Day 21): 3
- Hospital Discharge, percent ([2]; 1 mg, Day 21): 50.0%
- # Subjects Respiratory Failure-Free, percent ([2]; 1 mg, Day 28): 83.3%
- Hospital Discharge, number ([2]; 1 mg, Day 28): 5
- Hospital Discharge, percent ([2]; 1 mg, Day 28): 83.3%
- Proportion of Subjects Alive and Respiratory Failure-free ([2]; 1 mg, Day 28): 83.3%
- Proportion of Subjects Alive and Respiratory Failure-free, number ([2]; 1 mg, Day 28): 5
- # Subjects Respiratory Failure-Free ([2]; 1 mg, Day 28, number of subjects): 5
- IFN-γ, within-group percent difference in geometric mean from baseline [2, 3]: −46.12%
- IL-6, within-group percent difference in geometric mean from baseline [2, 3]: 29.45%
- IL-8, within-group percent difference in geometric mean from baseline [2, 3]: −16.78%
- IL-10, within-group percent difference in geometric mean from baseline [2, 3]: −26.59%
- IP-10, within-group percent difference in geometric mean from baseline [2, 3]: −20.65%
- MCP-1, within-group percent difference in geometric mean from baseline [2, 3]: 13.90%
- MDC, within-group percent difference in geometric mean from baseline [2, 3]: −55.03%
- RAGE, within-group percent difference in geometric mean from baseline [2, 3]: −14.22%
- TARC, within-group percent difference in geometric mean from baseline [2, 3]: −57.21%
- hsCRP, within-group percent difference in geometric mean from baseline [2, 3]: −34.85%
- Time to Hospital Discharge (Days) Mean ± SD ([2]; 1 mg, still hospitalized or died = 28 days): 18.83 ± 6.795 days
- # Subjects Alive, percent ([2]; 1 mg, through Day 28): 83.3%
- Died (All-Cause Mortality), percent ([2]; 1 mg, through Day 28): 16.7%
- # Subjects Alive ([2]; 1 mg, through Day 28, number of subjects): 5
- Clinical Status at Day 28: 1-Not hospitalized, no limitations on activities, number ([2]; 3 mg): 5
- Clinical Status at Day 28: 1-Not hospitalized, no limitations on activities, percent ([2]; 3 mg): 83.3%
- Clinical Status at Day 28: 2-Not hospitalized, but with limitations on activities and/or requiring home oxygen, number ([2]; 3 mg): 0
- Clinical Status at Day 28: 3-Hospitalized, not requiring supplemental oxygen, and no longer requiring ongoing medical care, number ([2]; 3 mg): 0
- Clinical Status at Day 28: 4-Hospitalized, not requiring supplemental oxygen, but requiring ongoing medical care, number ([2]; 3 mg): 1
- Clinical Status at Day 28: 4-Hospitalized, not requiring supplemental oxygen, but requiring ongoing medical care, percent ([2]; 3 mg): 16.7%
- Clinical Status at Day 28: 5-Hospitalized, requiring supplemental oxygen, number ([2]; 3 mg): 0
- Clinical Status at Day 28: 6-Hospitalized, on non-invasive ventilation or high-flow oxygen devices, number ([2]; 3 mg): 0
- Clinical Status at Day 28: 7-Hospitalized, on invasive mechanical ventilation or extracorporeal membrane oxygenation, number ([2]; 3 mg): 0
- Clinical Status at Day 28: 8-Death, number ([2]; 3 mg): 0
- Still in Hospital at Day 28, number ([2]; 3 mg): 0
- Time to Hospital Discharge (Days) Median ([2]; 3 mg): 17.0 days
- Modified Borg Dyspnea Score, Baseline, Mean ([2]; 3 mg group): 6.71
- Modified Borg Dyspnea Score Change from Baseline, Mean ([2]; 3 mg, Day 2): −0.43
- Modified Borg Dyspnea Score Change from Baseline, Mean ([2]; 3 mg, Day 3): −1.00
- Modified Borg Dyspnea Score Change from Baseline, Mean ([2]; 3 mg, Day 4): −0.50
- Modified Borg Dyspnea Score Change from Baseline, Mean ([2]; 3 mg, Day 5): −1.20
- Modified Borg Dyspnea Score Change from Baseline, Mean ([2]; 3 mg, Day 6): −1.20
- Hospital Discharge, number ([2]; 3 mg, Day 7): 1
- Hospital Discharge, percent ([2]; 3 mg, Day 7): 14.3%
- Modified Borg Dyspnea Score Change from Baseline, Mean ([2]; 3 mg, Day 7): −1.80
- Hospital Discharge, number ([2]; 3 mg, Day 14): 2
- Hospital Discharge, percent ([2]; 3 mg, Day 14): 28.6%
- Hospital Discharge, number ([2]; 3 mg, Day 21): 6
- Hospital Discharge, percent ([2]; 3 mg, Day 21): 86% and 85.7%
